This is an account of results in patent US20190010167A1, “INHIBITORS OF THE MENIN-MLL INTERACTION” (Vitae Pharmaceuticals, Inc., priority 2015, published 2019).

Where only a bound is given, the exact number is not on record here.

The target of assay [1] is T1, mutated menin / MLL-AF9 fusion protein (Homo sapiens, UniProt O00255).
T1 construct: biotinylated (1) wild-type menin or (2) mutated menin (described in Nature (2012) Vol. 482, pp. 542-548); fused on or other part: Biotin attached chemically with Sulfo-NHS-Biotin; This is a label, not a fusion
T1 sequence (O00255 1-610): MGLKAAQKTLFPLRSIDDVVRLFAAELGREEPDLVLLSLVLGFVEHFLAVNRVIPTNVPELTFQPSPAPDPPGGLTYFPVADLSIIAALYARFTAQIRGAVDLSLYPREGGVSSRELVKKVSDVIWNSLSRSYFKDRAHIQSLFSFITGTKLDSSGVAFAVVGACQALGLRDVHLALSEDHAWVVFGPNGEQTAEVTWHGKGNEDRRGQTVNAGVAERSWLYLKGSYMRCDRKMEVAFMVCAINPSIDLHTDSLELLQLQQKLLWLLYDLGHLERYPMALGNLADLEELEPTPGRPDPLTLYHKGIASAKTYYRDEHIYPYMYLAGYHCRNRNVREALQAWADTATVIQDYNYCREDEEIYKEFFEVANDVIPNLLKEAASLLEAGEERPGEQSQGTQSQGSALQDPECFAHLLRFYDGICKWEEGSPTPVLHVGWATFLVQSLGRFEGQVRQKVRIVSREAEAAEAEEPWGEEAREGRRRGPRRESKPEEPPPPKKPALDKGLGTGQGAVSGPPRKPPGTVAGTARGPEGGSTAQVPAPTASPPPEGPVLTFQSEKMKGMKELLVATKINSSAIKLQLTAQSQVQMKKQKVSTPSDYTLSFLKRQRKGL
The experiment in a line: AlphaLISA menin/MLL binding assay, mutated menin (Assay 1). The following applies: biotinylated mutated menin 5 nM, MLL-AF9-FLAG lysate, read-out: Assay 1 Mutant Menin IC50. Here is the method: Potencies of inhibitor compounds against menin/MLL binding were assessed by AlphaLISA assay using biotinylated (1) wild-type menin or (2) mutated menin (described in Nature (2012) Vol. 482, pp. 542-548) and MLL-AF9 fusion protein bearing a FLAG epitope at its C-terminus. Menin proteins were expressed in E. coli and covalently modified with biotin using EZ-Link™ Sulfo-NHS-Biotin (ThermoFisher Cat. No. 21217) according to manufacturer's protocol. MLL1-1,396 fused to AF91-92 and the C-terminal FLAG peptide was expressed in HEK293 cells and used as a lysate cleared at 21,000×g for 10 min.
Compounds (2 μL of solutions in DMSO) were dispensed in white 96-well half-area plates (Corning Cat. No. 3693) and incubated for 30 min at RT with 5 nM biotinylated menin and appropriate amount of MLL-AF9-FLAG lysate in 40 μL of 50 mM Tris-HCl buffer pH 7.4 containing 5% (v/v) DMSO, 50 mM NaCl, 0.01% (w/v) bovine serum albumin (BSA) and 1 mM DTT. To this incubation mixture, 40 μl of AlphaLISA anti-FLAG acceptor (PerkinElmer Cat. No. AL112C) and streptavidin donor (PerkinElmer Cat. No. 6760002) beads (10 μg/mL each) was added and incubation continued at RT for 60 min. Alpha (amplified luminescent proximity homogeneous assay) signal was measured on an Envision multi-label plate reader at the end of the incubation. All steps were conducted under dim fluorescent light.
These percent inhibition values were regressed against compound concentrations in the assay using four parameter logit non-linear curve fitting (XLFit, IDBS). The IC50 values were derived from the curve fitting as inflection points on the dose-response curves and are set out in Table 1 below.

Assay [2] concerns the target T2, menin/MLL (Gal4-Menin and MLL1-46-VP16) in HEK293 cells (Homo sapiens, UniProt O00255).
T2 construct: expressed in transfected cells; host or cells: HEK293 (ATCC)
The experiment in a line: Mammalian cellular two-hybrid assay in HEK293 cells (Assay 2, cell assay). The assay is classed as cell-based. The following applies: Gal4-Menin/MLL1-46-VP16 two-hybrid, NanoLuc luciferase reporter, 16-18 h. The gist of the method:
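HEK293 cells co-transfected with Gal4-Menin, MLL1-46-VP16 and a 4×UAS secreted NanoLuc reporter, then exposed to compound for 16-18 h at 37 °C in 10% delipidated FBS (0.1% DMSO). Inhibition from secreted NanoLuc relative to DMSO and 5 μM MI-2-2, with 4-parameter IC50 fit. CellTiter-Glo measured toxicity.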

T2 sequence (P04386 1-147 partner limits assumed, species assumed, one chain of several): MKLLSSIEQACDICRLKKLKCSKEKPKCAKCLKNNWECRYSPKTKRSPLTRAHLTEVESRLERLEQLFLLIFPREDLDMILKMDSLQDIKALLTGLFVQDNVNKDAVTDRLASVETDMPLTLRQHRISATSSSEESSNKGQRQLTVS

On to `CC(C)N1CCC2(CCN(c3ncnc4sc(CC(F)(F)F)cc34)CC2)C1` [Example 25, 4-(2-isopropyl-2,8-diazaspiro[4.5]decan-8-yl)-6-(2,2,2-trifluoroethyl)thieno[2,3-d]pyrimidine], for which the IC50 in assay [1] was 100 to 1000 nM; in assay [2], no less than 1000 nM.
